Laboratory results taken from patent EP0591583B1, “Benzo (f) quinolinones as 5-alpha-reductase inhibitors” (ELI LILLY AND COMPANY, priority 1992, dated 1994).

What follows are molecules tested against T1, 5α-reductase (Homo sapiens, UniProt P18405) (assay: 5α-Reductase activity in Hs68 human genital skin fibroblasts (conversion of labeled testosterone, TLC analysis)). Settings: Hs68, test compound 0.316 µM; Hs68 cells; substrate testosterone 12 µM; incubated four hours.
T1 construct: host or cells: Hs68 human genital skin fibroblasts
T1 sequence (P18405 1-259): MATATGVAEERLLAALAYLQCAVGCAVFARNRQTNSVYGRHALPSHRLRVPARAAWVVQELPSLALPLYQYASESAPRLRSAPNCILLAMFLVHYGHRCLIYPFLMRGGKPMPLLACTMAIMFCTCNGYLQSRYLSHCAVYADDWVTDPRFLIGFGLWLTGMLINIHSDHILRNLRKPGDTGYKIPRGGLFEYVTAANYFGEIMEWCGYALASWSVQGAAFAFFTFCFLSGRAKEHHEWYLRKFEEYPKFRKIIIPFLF
Type: cell-based
Experimental: Cell Culture: 5α-Reductase activity was measured using Hs68 human genital skin fibroblasts which were originally purchased from the American Type Culture Collection (Rockville, MD). The cells were grown in Dulbecco's Modified Eagle's Medium (DMEM) plus 10% stripped fetal bovine serum which was supplemented with amphotericin B ([…]) and gentamicin ([…]) (GIBCO, Grand Island, NY). The serum was stripped of endogenous steroids by incubation with dextran-coated charcoal prior to its addition to the media. The cells were maintained at 37°C in an atmosphere of 95% air, 5% CO2 and were passaged every 7-10 days by exposure to a trypsin-EDTA solution (0.025% trypsin, 0.265 mM EDTA). Prior to the assay the Hs68 cells were harvested and plated in Falcon 6-well plates (Becton Dickinson Labware, Lincoln Park, NJ) at a density of 6 x 10^4 cells per well. The cells were allowed to grow for 4-5 days or until they reached approximately 80% confluence.
Assay Method I: The substrate was prepared by dissolving unlabeled testosterone (Sigma Chemical Co., St. Louis, MO) in absolute ethanol followed by the addition of [7-^3H (N)]-testosterone (23.3 Ci/mmole, New England Nuclear, Boston, MA). The steroid solution was taken to dryness under a stream of nitrogen and then reconstituted in media.
Assay Method II: The substrate used for this method was [^14C]-testosterone (50 mCi/mmol) (New England Nuclear, Boston, MA). An aliquot of the substrate was taken to dryness under a stream of nitrogen. After the addition of 30 µl of ethanol, the testosterone was dissolved in an appropriate volume of media.
Sample Preparation: The test compounds were brought up in absolute ethanol in order to achieve the desired concentration. Subsequent dilutions of the test compounds with media were performed by the Biomek 1000 Automated Laboratory Workstation (Beckman Instruments, Palo Alto, CA). The existing media in the sample wells was aspirated and replaced with fresh media. Test compound was then added to the wells followed by the addition of 0.5 ml of substrate. The volume of the incubation mixture was maintained at 2.0 ml. The final substrate concentration was 12 µM. The concentration of the test compounds ranged from 0.001-150 µM. An additional three wells (background) containing media and substrate but no cells were also included to account for the non-enzymatic metabolism of the substrate. The plates were returned to the incubator and incubated for four hours.
At the end of the incubation the media was collected and transferred to an extraction tube containing 5 ml of toluene-ethanol (9:1), to which has been added 20-250 µg each of unlabeled carrier steroids (estriol, estradiol, estrone, 5α-androstan-3α,17β-diol, 5α-androstan-3β,17β-diol, 4-androstene-3,17-dione, 5α-androstan-3,17-dione, testosterone, and 5α-dihydrotestosterone) (Steraloids, Inc., Wilton, NH). In the case of Assay Method I the extraction tube also contained 1,000 and 10,000 dpm of [4-^14C]-dihydrotestosterone (50-60 mCi/mmol) and [4-^14C]-testosterone (50 mCi/mmol) (New England Nuclear, Boston, MA), respectively. The [^14C]-steroids were included as recovery standards to quantify procedural losses. A small amount of NaCl was also added to the extraction tubes to prevent foaming. The samples were vortexed for approximately 30 seconds and then centrifuged for 10 minutes at 500 x g. The organic phase was collected and the samples taken to dryness, redissolved in dichloromethane-methanol (9:1) and were analyzed by thin layer chromatography using one of the methods described below.
Chromatography Method I (two-dimensional): The extracted samples were appled to silica gel 60F254, 0.25 mm thick, thin layer chromatography plates (EM Science, Cincinnati, OH). The plates were developed in the first dimension with a solvent system containing dichloromethane-ethyl acetate-methanol-acetic acid (160:38:1.5:0.5, Mallinckrodt Inc., Paris, KY).

SMILES | inhibition at 0.316 µM
CN1C(=O)CC[C@@H]2c3ccc(Cl)cc3CC[C@H]21 [Example 64, (-)-(4aR)-(10bR)-8-chloro-4-methyl-1,2,3,4,4a,5,6, lOb-octahydrobenzo[f]quinolin-3-one] | 91.5%

Same assay, conditions: Hs68, test compound 0.316 µM; Hs68 cells; substrate testosterone 12 µM; incubated four hours; read-out: % Inhibition

SMILES | inhibition at 0.316 µM
CN1C(=O)CC[C@@H]2c3cc([N+](=O)[O-])ccc3CC[C@H]21 (racemic) [Example 47, trans-dl-9-nitro-4-methyl-1,2,3,4,4a,5,6,10b-octahydrobenzo[f]quinolin-3-one] | 49.7%
CN1C(=O)CC[C@@H]2c3cc(N)ccc3CC[C@H]21 (racemic) [Example 48, trans-dl-9-amino-4-methyl-1,2,3,4,4a,5,6,10b-octahydrobenzo[f]quinolin-3-one] | 4.36%
CN1C(=O)CC[C@@H]2c3cc(Cl)ccc3CC[C@H]21 (racemic) [Example 49, trans-dl-9-chloro-4-methyl-1,2,3,4,4a,5,6,10b-octahydrobenzo[f]guinolin-3-one] | 65.7%
O=C1C=C[C@@H]2c3ccc(Cl)cc3CC[C@H]2N1 (racemic) [Example 50A, trans-dl-8-chloro-3,4,4a,5,6,10b-hexahydrobenzo[f]quinolin-3-one] | 83.3%
O=C1CC=C2c3ccc(Cl)cc3CCC2N1 (racemic) [Example 50B, dl-8-chloro-2,3,4,4a,5,6-hexahydrobenzo[f]quinolin-3-one] | 84%
CN1C(=O)CC=C2c3ccc(Cl)cc3CCC21 (racemic) [Example 53, dl-8-chloro-4-methyl-2,3,4,4a,5,6-hexahydrobenzo[f]quinolin-3-one] | 74.8%
C[C@@H]1C[C@@H]2c3ccc(Cl)cc3C=C[C@H]2N(C)C1=O (racemic) [Example 54, trans-dl-8-chloro-2-a-methyl-4-methyl-1,2,3,4,4a,10b-hexahydrobenzo[f]quinolin-3-one] | 73.8%
CN1C(=O)CC[C@@H]2c3ccc(CCC(=O)NC(C)(C)C)cc3CC[C@H]21 (racemic) [Example 55, trans-dl-8-t-butylaminocarbonylethanediyl-4-methyl-1,2,3,4,4a,5,6,10b-octahydrobenzo[f]quinolin-3-one] | 17.3%
CN1C(=O)CC[C@@H]2c3ccc(-c4ccccc4)cc3CC[C@H]21 (racemic) [Example 56, trans-dl-8-phenyl-4-methyl-1,2,3,4,4a,5,6,10b-octahydrobenzo[f]quinolin-3-one] | 74.8%
C=Cc1ccc2c(c1)CC[C@@H]1[C@@H]2CCC(=O)N1C (racemic) [Example 57, trans-dl-8-vinyl-4-methyl-1,2,3,4,4a,5,6,10b-octahydrobenzo[f]quinolin-3-one] | 66.6%
CCOC(=O)c1ccc2c(c1)CC[C@@H]1[C@@H]2CCC(=O)N1C (racemic) [Example 58, trans-dl-8-ethoxycarbonyl-4-methyl-1,2,3,4,4a,5,6,10b-octahydrobenzo[f]quinolin-3-one] | 65.7%
CCN1C(=O)CC[C@@]2(C)c3ccccc3CC[C@H]12 (relative stereo) [Example 42, trans-4-ethyl-10b-methyl-1,2,3,4,4a,5,6,10b-octahydrobenzo[f]quinolin-3-one] | 10.9%
CCCCN1C(=O)CC[C@@]2(C)c3ccccc3CC[C@H]12 (relative stereo) [Example 43, trans-4-n-butyl-10b-methyl-1,2,3,4,4a,5,6,10b-octahydrobenzo[f]quinolin-3-one] | 11.9%
CN1C(=O)CC[C@]2(C)c3ccc(Cl)cc3CC[C@@H]12 [Example 59, (R) (+)-trans-4-methyl-8-chloro-10b-methyl-1,2,3,4,4a,5,6,10b-octahydrobenzo[f]quinolin-3-one] | 71.9%
C[C@]12C=CC(=O)N[C@@H]1CCc1cc(Cl)ccc12 [Example 61, (R) (+)-trans-8-chloro-10b-methyl-3,4,4a,5,6,10b-hexahydrobenzo[f]quinolin-3-one] | 61.5%
CN1C(=O)CC[C@H]2c3ccc(Cl)cc3CC[C@@H]21 [Example 65, (+)-(4aS)-(10bS)-8-chloro-4-(methyl)-1,2,3,4,4a,5,6,10b-octahydrobenzo[f]quinolin-3-one] | 95.6%

Same assay, conditions: Hs68, test compound 1.00 µM; Hs68 cells; substrate testosterone 12 µM; incubated four hours

SMILES | inhibition at 1 µM
CN1C(=O)CCC2(C)c3ccc(Cl)cc3CCC12 (racemic) [Example 34, trans-dl-8-chloro-4,10b-di-methyl-1,2,3,4,4a,5,6,10b-octahydrobenzo[f]-quinolin-3-one] | 94.2%

Same assay, conditions: Hs68, test compound 1.00 µM; Hs68 cells; substrate testosterone 12 µM; incubated four hours; read-out: % Inhibition

SMILES | inhibition at 1 µM
CN1C(=O)CCC2(C)c3ccc(F)cc3CCC12 (racemic) [Example 32, trans-dl-8-fluoro-4,10b-dimethyl-1,2,3,4,4a,5,6,10b-octahydrobenzo[f]quinolin-3-one] | 81.6%
C[C@]12CCC(=O)N[C@@H]1CCc1cc(Cl)ccc12 (racemic) [Example 38, trans-dl-8-chloro-10b-methyl-1,2,3,4,4a,5,6,10b-octahydrobenzo[f]quinolin-3-one] | 34%
CN1C(=O)C=C[C@@H]2c3ccc(Br)cc3CC[C@H]21 (racemic) [Example 51, trans-dl-8-bromo-4-methyl-3,4,4a,5,6,10b-hexahydrobenzo[f]quinolin-3-one] | 95.1%
CN1C(=O)C=C[C@@H]2c3ccc(Cl)cc3CC[C@H]21 (racemic) [Example 52, trans-dl-8-chloro-4-methyl-3,4,4a,5,6,10b-hexahydrobenzo[f]quinolin-3-one] | 71.8%

Same assay, conditions: Hs68, test compound 3.16 µM; Hs68 cells; substrate testosterone 12 µM; incubated four hours

SMILES | inhibition at 3.16 µM
CN1C(=O)CC[C@@]2(C)c3ccccc3CC[C@H]12 (stereo in doubt) [Example 45, trans-4-methyl-10b-methyl-1,2,3,4,4a,5,6,10b-octahydrobenzo[f]quinolin-3-one] | 72.2%

Same assay, conditions: Hs68, test compound 150.00 µM; Hs68 cells; substrate testosterone 12 µM; incubated four hours

SMILES | inhibition at 150 µM
C[C@]12CCC(=O)N[C@@H]1CCc1ccccc12 (racemic) [Example 36, trans-dl-10b-methyl-1,2,3,4,4a,5,6,10b-octahydrobenzo[f]quinolin-3-one] | 43.9%

Same assay, conditions: test compound 0.316 µM; Hs68 cells; substrate testosterone 12 µM; incubated four hours; read-out: % Inhibition

SMILES | inhibition at 0.316 µM
COc1ccc(CN2C(=O)CC[C@]3(C)c4ccc(Cl)cc4CC[C@@H]23)cc1 [Example 44] | 5.7%

Same assay, conditions: test compound 1.00 µM; Hs68 cells; substrate testosterone 12 µM; incubated four hours; read-out: % Inhibition

SMILES | inhibition at 1 µM
CN1C(=O)CC[C@]2(C)c3ccccc3CC[C@@H]12 (stereo in doubt) [Example 37, trans-dl-4,10b-dimethyl-1,2,3,4,4a,5,6,10b-octahydrobenzo[f]quinolin-3-one] | 40%

Same assay, conditions: test compound 15.00 µM; Hs68 cells; substrate testosterone 12 µM; incubated four hours

SMILES | inhibition at 15 µM
O=C1CC[C@@H]2c3cc([N+](=O)[O-])ccc3CC[C@H]2N1 (racemic) [Example 46, trans-dl-9-nitro-1,2,3,4,4a,5,6,10b-octahydrobenzo[f]quinolin-3-one] | 69.9%
